Results on seven molecules are retold here after PubChem BioAssay (NCI).

Holding throughout (experiment): growth of human tumour cells (NCI), 48 h
Test [1] deals with 786-0 renal.
Test [2] has as its system SF-268 CNS.
In test [3] the test system is HS 578T breast.
The subject of test [4] is COLO 205 colon.
Test [5] concerns SK-OV-3 ovarian.
The test system of test [6] is MOLT-4 leukemia.
For test [7], the system named is CAKI-1 renal.
For test [8], the system named is T-47D breast.
The test system of test [9] is HOP-92 NSCLC.
The subject of test [10] is SK-MEL-2 melanoma.

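Compound exposure: 48 hours, 5 concentrations, 96-well plates. The concentration for 50% growth inhibition is given as GI50. Definition used: TGI = concentration required for complete inhibition of growth.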

Consider `Cc1ccc(CNc2ccc3nc(CCC4CCCCC4)[nH]c3c2)cc1`, for which the GI50 was 2.12 µM in test [1]; 3.08 µM in [2]; 2.16 µM in test [3]; 1.88 µM in test [4]; 2.17 µM in [5]; 2.76 µM in test [6]. Further, the GI50 in [7] is 2.67 µM; in test [8], 2.56 µM; in test [9] it was 1.23 µM; in [10] it was 2.31 µM. The TGI in test [1] was 4.93 µM; in test [2], greater than 100 µM; in [3] it was 7.06 µM; in [4] it was 3.66 µM; in test [5] it was 5.44 µM; in test [6], 9.71 µM. Moreover, the TGI worked out at 7.03 µM in test [7], 8.5 µM in test [8], 3.49 µM in test [9] and 5.5 µM in test [10].
As for `Oc1ccccc1-c1nn(CNc2ccc(Cl)cc2)c(=S)o1`, the GI50 in test [1] is greater than 100 µM; in [2], 9.2 µM; in [3], greater than 100 µM; in test [4] it was 7.01 µM; in test [5], greater than 100 µM; in test [6] it was 20.7 µM. Moreover, the GI50 in test [7] was 3.71 µM; in test [8], 57 µM; in test [9], 88.8 µM; in test [10], greater than 100 µM. Also, the TGI in [1] was greater than 100 µM; in test [2], greater than 100 µM; in test [3] it was greater than 100 µM; in test [4], greater than 100 µM; in test [5], greater than 100 µM; in test [6], 74 µM. Also, the TGI in test [7], in test [8], in test [9] and in [10] was greater than 100 µM in each case.
On to `COc1ccc2c(c1)CCC1C2CC[C@@]2(C)C1CC[C@@H]2NC(=O)Cc1ccc(O)c(O)c1` (stereo not given in full), for which the GI50 in test [1] was 5 µM; in test [2], 7.48 µM; in test [3], 7.22 µM; in test [4], 3.34 µM; in test [5], 16.7 µM; in test [6], 2.76 µM. The GI50 in [7] is 8.53 µM; in test [8] it was 6.91 µM; in [9] it was 14.2 µM; in [10], 15.2 µM. The TGI in [1] stood at 17.7 µM; in test [2], 25.3 µM; in test [3], 43.9 µM; in test [4], 12.5 µM; in test [5] it was 33.4 µM; in test [6], 83 µM. Also, the TGI in [7] amounted to 21.7 µM; in [8], 72.8 µM; in test [9] it was 30.8 µM; in [10], 33.8 µM.
Regarding `CC1=C(C#N)C23C(=O)N(c4ccccc4)C(=O)C2=C(O)C=CC3(O)N1Cc1ccc(Cl)cc1Cl` (stereo not given), the GI50 in [1] was 3.99 µM; in test [2], 3.74 µM; in test [3] it was 3.13 µM; in test [4], 4.11 µM; in test [5], 11.2 µM; in test [6] it was 2.92 µM. Further, the GI50 in [7] was 2.94 µM; in test [8], 2.93 µM; in [9], 3.02 µM; in test [10], 2.98 µM. For the same molecule, the TGI in test [1] came to 14.5 µM; in test [2] it was 16.4 µM; in test [3] it was 11.6 µM; in [4] it was 14.4 µM; in test [5], 23.2 µM; in [6], 7.55 µM. In addition, the TGI in [7] turned out to be 12.1 µM; in [8], 14.6 µM; in test [9] it was 13.3 µM; in [10], 11.5 µM.
Consider `CCN1CCN(CCNc2nccc(-c3c(-c4ccc(F)c(O)c4)nc4occn34)n2)S1(=O)=O`, for which the GI50 was 9.44 µM in [1]; 4.84 µM in test [2]; 6.75 µM in [3]; 4.6 µM in [4]; 12.9 µM in test [5]; 2.56 µM in [6]. For the same molecule, the GI50 is 4.3 µM in test [7], 2.13 µM in test [8], 52.1 µM in [9] and 3.98 µM in test [10]. Besides, the TGI in test [1], in [2], in test [3], in [4], in test [5] and in test [6] was greater than 100 µM in each case. Moreover, the TGI was greater than 100 µM in test [7], 24.6 µM in test [8], greater than 100 µM in [9] and greater than 100 µM in test [10].
`CCCc1nn(C)c2c(=O)[nH]c(-c3cc(S(=O)(=O)N4CCN(C)CC4)ccc3OCC)nc12`: the GI50 in test [1] was greater than 100 µM; in [2] it was greater than 100 µM; in test [3] it was 21.6 µM; in [4] it was greater than 100 µM; in [5], greater than 100 µM; in [6], greater than 100 µM. Also, the GI50 is greater than 100 µM in [7], greater than 100 µM in test [8], 23.5 µM in test [9] and greater than 100 µM in test [10]. Moreover, the TGI in test [1], in test [2], in test [3], in test [4], in test [5] and in [6] was greater than 100 µM in each case. Further, the TGI in test [7] was greater than 100 µM; in test [8], greater than 100 µM; in test [9], 97.5 µM; in test [10], greater than 100 µM.
For `NCCCCC(NC(=O)C(N)CCCN=C(N)N)C(=O)NC(CCCCN)C(=O)NC(CCCN=C(N)N)C(=O)NC(CCCN=C(N)N)C(=O)NC(CCC(N)=O)C(=O)NC(CCCN=C(N)N)C(=O)NC(CCCN=C(N)N)C(=O)NC(CCCN=C(N)N)C(=O)NCC(=O)NCC(=O)O` (stereo not given), the GI50 in [1], in [2], in [3], in test [4], in [5] and in test [6] was greater than 50 µM in each case. The GI50 in test [7], in test [8], in [9] and in test [10] was greater than 50 µM throughout. The TGI in test [1], in test [2], in test [3], in test [4], in [5] and in test [6] was greater than 50 µM in each case. Besides, the TGI in [7], in [8], in test [9] and in test [10] was greater than 50 µM in each case.
